Data: patent US20240336659A1, “CELL-PENETRATING PEPTIDE, ANTI-CANCER PEPTIDE, AND PHARMACEUTICAL COMPOSITION FOR PREVENTING OR TREATING CANCER, COMPRISING SAME” (ONECUREGEN CO., LTD., priority 2021, published 2024)
Positions of bridges follow the written chain, without caps; N, C: chain ends. No end group written: not given here.

Legend:
[1] = test system: stomach cancer cell line NUGC3; assay: Cell growth inhibition (sulforhodamine B staining); assay type: cell-based
Procedure: (§1) Specifically, in order to confirm cell growth ability, a stomach cancer cell line NUGC3 and a breast cancer cell line SK-BR-3 were each subcultured in a 96-well plate, and the next day, peptide fragments Con, 7, and CC of Table 2 were treated with 100 μM each to the cell lines. After 72 hours, the cells were immobilized with a 10% trichloroacetic acid solution, and then stained the cell with a 0.4% sulforhodamine B solution for 1 hour, washed with acetic acid, and dried. Thereafter, the dried cells were dissolved in a 10 mM Tris solution and absorbance was measured at 510 nm using an ELISA plate reader.
In order to compare the cancer cell growth inhibitory effects of cancer therapeutic peptides according to cell-penetrating peptides, the stomach cancer cell line NUGC3 was treated with 10 μM each of cancer therapeutic peptide fragments in Table 4, and the cancer cell growth inhibitory effects were screened in the same manner as in Example 1.
Specifically, in order to confirm the cancer cell inhibition enhancing effect by enhancing the cell permeability of OCP5 among the novel synthesized CPPs, a cancer therapeutic peptide fragment represented by SEQ ID NO: 6 including the existing TAT and a cancer therapeutic peptide fragment represented by SEQ ID NO: 31 including the novel synthesized OCP5 were used. The stomach cancer cell lines NUGC3 and AGS, the breast cancer cell line SK-BR-3, and the pancreatic cancer cell line Capan-1 were treated with 25 μM SEQ ID NO: 6 and 100 μM SEQ ID NO: 31 for 72 hours, respectively, and the cancer cell growth inhibitory effects were compared in the same manner as in Example 1. […] Through this, it was confirmed that the novel CPP may be applied more effectively than the existing TAT to inhibit the cancer cell growth by the anticancer peptides.
To analyze the cancer cell growth inhibitory effect according to a length of the anticancer peptide fragment, OCP9-VGLLIS84-7 (SEQ ID NO: 43), OCP9-VGLLIS84-9CC (SEQ ID NO: 46), and OCP9-VGLLIS84-15 (SEQ ID NO: 49) were treated for each concentration to analyze the growth inhibitory effects of stomach cancer cell lines NUGC3 and NCI-N87. When stomach cancer cells were treated with cancer therapeutic peptides, the cancer cell growth inhibitory efficacy was shown in a concentration-dependent manner. In addition, it was confirmed that the growth inhibitory effect on the stomach cancer cell lines increased as the length of the anticancer peptide fragment increased (FIG. 7).
Specifically, the cancer cell growth inhibitory effect according to partial or entire cyclization of the anticancer peptide fragment was analyzed. The stomach cancer cell line NUGC3 was treated with a CPP fragment OCP9 (SEQ ID NO: 16), a partially cyclized sequence […] (SEQ ID NO: 33), or a sequence OCP9-VGLLIS84-7CC (SEQ ID NO: 40) including an entirely cyclized anticancer peptide at different concentrations of 1, 2.5, 5, 10, and 20 μM, respectively, and the cancer cell growth inhibitory effects were compared in the same manner as in Example 1.

[2] = test system: breast cancer cell line SK-BR-3; assay: Cell growth inhibition (sulforhodamine B staining); assay type: cell-based; details: SK-BR-3, 100 μM, 72 hours; compared with linear anticancer peptide (SEQ ID NO: 5)
Procedure: as §1
(§2) Specifically, in order to confirm the cancer cell inhibition enhancing effect by enhancing the cell permeability of OCP5 among the novel synthesized CPPs, a cancer therapeutic peptide fragment represented by SEQ ID NO: 6 including the existing TAT and a cancer therapeutic peptide fragment represented by SEQ ID NO: 31 including the novel synthesized OCP5 were used. The stomach cancer cell lines NUGC3 and AGS, the breast cancer cell line SK-BR-3, and the pancreatic cancer cell line Capan-1 were treated with 25 μM SEQ ID NO: 6 and 100 μM SEQ ID NO: 31 for 72 hours, respectively, and the cancer cell growth inhibitory effects were compared in the same manner as in Example 1. […]

MMP9 [3] = assay: MMP9 Western blot of extracted xenograft tumor tissue; assay type: in vivo; details: extracted NUGC3 xenograft tumor, 10 mg/kg once a day
Procedure: After completion of the in vivo xenograft experiment in Example 6-1, changes in the protein expression level of MMP9 were measured in the extracted tumor tissue using immunohistochemical staining and Western blot methods. In addition, the amount of MMP9 protein in the tumor tissue was analyzed by Western blot experiment. The protein amount in the sample was quantified using a BCA assay method, and 20 μg of each sample was loaded, electrophoresed on SDS-PAGE, and then transferred to a nitrocellulose membrane. The membrane was blocked in a 5% skim milk solution for 1 hour, and then placed in MMP9 (1:1000, Abcam #ab76003) or ACTB (1:10,000, SantaCruz #sc-47778) antibody solution and reacted overnight at 4° C. The next day, the primary antibody was removed, the membrane was washed with a TBST buffer, and a HRP-conjugated anti-mouse or anti-rabbit secondary antibody was diluted at 1:10,000 in the 5% skim milk solution, and then reacted with the membrane at room temperature for 1 hour. The blot reacted with a SuperSignalTM West Pico Chemiluminescent substrate (ThermoFisher #34580) and analyzed on the ChemiDoc XRS+ System (Bio-Rad Laboratories, #1708265).

[4] = test system: stomach cancer cell lines NUGC3; assay: Mouse xenograft experiment (tumor formation); assay type: in vivo, Balb-c/nude mouse; details: intraperitoneally 10 mg/kg once a day
Procedure: A mouse xenograft experiment was performed to analyze a tumor formation inhibitory effect of cancer therapeutic peptide fragments. Specifically, 5×10^6 stomach cancer cell lines NUGC3 were transplanted by subcutaneous injection into a flank site of a 6-week-old female Balb-c/nude mouse, and after one week (average tumor size 100 mm^3), Vehicle (0.9% saline), OCP5 (SEQ ID NO: 12), OCP5-VGLL1S84-15C (SEQ ID NO: 29), or OCP5-VGLL1S84-7C (SEQ ID NO: 33) was each administered intraperitoneally at 10 mg/kg once a day. Tumor size was measured with a digital caliper at 2-day intervals from the start of drug administration, and the tumor size (tumor size (mm^3)=long axis x short axis2) was calculated. The experiment was terminated when the average tumor size of the OCP5-administered group was 1,000 mm3, and then the tumor was extracted, and the tumor weight was measured.

MMP9 [5] = assay: MMP9 immunohistochemical staining of extracted xenograft tumor tissue; assay type: in vivo; details: extracted NUGC3 xenograft tumor, 10 mg/kg once a day
Procedure: After completion of the in vivo xenograft experiment in Example 6-1, changes in the protein expression level of MMP9 were measured in the extracted tumor tissue using immunohistochemical staining and Western blot methods. The immunohistochemical staining was performed by the following method. The extracted tumor tissue was immobilized with 4% paraformaldehyde and embedded in paraffin, and then the tissue was sectioned at 4 μm thickness and attached to a glass slide. The tissue was hydrated with a xylene-ethanol reaction, and then reacted with an MMP9 antibody (1:100) at 4° C. overnight. The next day, the tissue sections were washed with PBS and reacted with a secondary antibody HRP-conjugated anti-rabbit antibody (1:100) at room temperature for 1 hour, and then the antibody was washed with PBS, and the reacted MMP9 was searched through the reaction by a DAB substrate kit (Vecotr Laboratories, #SK-4100). After DAB washing, nuclear staining was performed with a hematoxylin solution, and the tissue was emulsified through an ethanol-xylene reaction and then mounted. Tissue photographs were obtained using a Nikon TS2 microscope.

[6] = test system: stomach cancer cell line AGS; assay: Cell growth inhibition (sulforhodamine B staining); assay type: cell-based; details: 10 μM
Procedure: as §1, §2

[7] = test system: stomach cancer cell lines NUGC3; assay: Wound healing assay (cancer cell migration); assay type: cell-based; details: 10 μM
Procedure: In order to analyze the possibility of metastasis inhibitory efficacy of stomach cancer cells by anticancer therapeutic peptides, a wound healing assay was performed to evaluate a migration inhibitory effect of stomach cancer cells. Specifically, 5×10^4 stomach cancer cell lines NUGC3 were subcultured in a 24-well plate, and then the next day, scratches were made at the center of the cells, and 10 μM OCP5-VGLL1S84-7C (SEQ ID NO: 33) was mixed into the cell culture medium and administered. Real-time cell images were acquired through Cytation5 (Biotek), and the degree of cancer cell migration was analyzed by calculating the average area (wound width, B) of the scratch area and the degree (% Confluence, C) to which cells were filled.

[8] = test system: pancreatic cancer cell line MIAPaca-1; assay: Cell growth inhibition (sulforhodamine B staining); assay type: cell-based; details: MIAPaca-1, 10 μM
Procedure: as §1
(§3) It was investigated whether the cancer therapeutic peptide synthesized in this study could be used to treat various cancers other than stomach cancer. For this purpose, the cancer therapeutic peptides OCP and OCP5-VGLLIS84-7C were treated in stomach cancer cell lines […] and AGS, lung cancer cell lines H460 and A549, pancreatic cancer cell lines AsPC-1 and MIAPaca-1, and breast cancer cell lines MCF7 and MDA-MB-231 at concentrations of 10 μM. Thereafter, as a result of analysis in the same manner as in Example 1, the growth inhibitory efficacy of OCP5-VGLLIS84-7C cancer cells was confirmed compared to the control OCP5 (FIG. 14).

[9] = test system: lung cancer cell line H460; assay: Cell growth inhibition (sulforhodamine B staining); assay type: cell-based; details: H460, 10 μM
Procedure: as §1, §3

[10] = test system: pancreatic cancer cell line AsPC-1; assay: Cell growth inhibition (sulforhodamine B staining); assay type: cell-based; details: AsPC-1, 10 μM
Procedure: as §1, §3

[11] = test system: breast cancer cell line MCF7; assay: Cell growth inhibition (sulforhodamine B staining); assay type: cell-based; details: MCF7, 10 μM
Procedure: as §1, §3

[12] = test system: stomach cancer cell line NUGC2; assay: Cell growth inhibition (sulforhodamine B staining); assay type: cell-based; details: NUGC2, 10 μM
Procedure: as §1, §3

[13] = test system: lung cancer cell line A549; assay: Cell growth inhibition (sulforhodamine B staining); assay type: cell-based; details: A549, 10 μM
Procedure: as §1, §3

[14] = test system: breast cancer cell line MDA-MB-231; assay: Cell growth inhibition (sulforhodamine B staining); assay type: cell-based; details: MDA-MB-231, 10 μM
Procedure: as §1, §3

Row | Substance | cell growth inhibitory effect ([1]; NUGC3, 100 μM, 72 hours, compared with linear anticancer peptide (SEQ ID NO: 5)) | cell growth inhibitory effect [2] | amount of MMP9 in tumor tissues (Western blot) (MMP9 [3]) | tumor formation inhibitory effect compared to the vehicle group [4] | amount of MMP9 protein in the tumor (immunohistochemical staining) (MMP9 [5]) | growth inhibitory efficacy compared to the control OCP5 [6] | cancer cell growth inhibitory effect ([1]; NUGC3, 10 μM screening of Table 4 peptides) | migration of cancer cells (wound width, % Confluence) [7] | growth inhibitory efficacy compared to the control OCP5 [8] | growth inhibitory efficacy compared to the control OCP5 [9] | growth inhibitory efficacy compared to the control OCP5 [10] | growth inhibitory efficacy compared to the control OCP5 [11] | growth inhibitory efficacy compared to the control OCP5 [12] | growth inhibitory efficacy compared to the control OCP5 [13] | growth inhibitory efficacy compared to the control OCP5 [14]
1 | YGRKKRRQRRR-CYSSPWTKC (YGRKKRRQRRRCYSSPWTKC; disulfide 12-20) [SEQ ID NO: 6, TAT-cyclic anticancer peptide] | significantly superior | significantly superior | – | – | – | – | – | – | – | – | – | – | – | – | –
2 | SIIFRIFLHLQK-CPNQWRYSSPWTKPQPC-RRR (SIIFRIFLHLQKCPNQWRYSSPWTKPQPCRRR; disulfide 13-29) [OCP5-VGLL1S84-15C] | – | – | reduced | 63% | significantly reduced | – | – | – | – | – | – | – | – | – | –
3 | SIIFRIFLHLQK-CYSSPWTKC-RRR (SIIFRIFLHLQKCYSSPWTKCRRR; disulfide 13-21) [OCP5-VGLL1S84-7C] | – | – | reduced | 45% | significantly reduced | confirmed | significant cancer cell growth inhibitory effect | inhibited | confirmed | confirmed | confirmed | confirmed | confirmed | confirmed | confirmed
